Values of other authors, collected in patent US20250312405A1, “FOOD SUPPLEMENT COMPRISING NEOHESPERIDIN DIHYROCHALCONE AND PEPPERMINT OIL” (priority 2022, published 2025).

Assays:
Campylobacter jejuni [1] = conditions: doses of 0.25 mM
Campylobacter jejuni [2] = conditions: dose of 0.2 mM
[3] = tested on: HT-29 cells co-cultured with immune cells; conditions: doses of 50 μmoles

| Compound | effect on the motility of Campylobacter jejuni (Campylobacter jejuni [1]) | cell invasion (Campylobacter jejuni [2]) | immune-induced epithelial disfunction by Campylobacter jejuni [3] |
| --- | --- | --- | --- |
| Cc1ccc(C(C)C)cc1O [carvacrol] | had an effect on the motility | reduced cell invasion | – |
| COc1cc(/C=C/C(=O)CC(=O)/C=C/c2ccc(O)c(OC)c2)ccc1O [curcumin] | – | – | mitigates the immune-induced epithelial disfunction |
